{
  "source": "patent US11780927B2",
  "about": "“Anti-CD40 antibodies for use in prevention of graft rejection” (NOVARTIS AG, priority 2018, dated 2023)",
  "key": {"[1]": {"experiment": "13-week GLP toxicity study"}, "CD20pos B cells": {"test_system": "CD20pos B cells", "experiment": "In vitro B cell depletion in human whole blood", "assay_type": "cell-based", "settings": "72 hours; Rituximab 50 μg/ml, CFZ533 dose titration", "method": "See supplementary material for detailed methods. Briefly, the ability of CFZ533 to mediated depletion of CD20^pos B cells was monitored in human whole blood over a period of three days in comparison to the B cell depleting antibody Rituximab. For CDC, CFZ533 or Rituximab were incubated with RAJI B cells in the presence or absence of rabbit complement and cell lysis was assessed by luminescence.\nB cells numbers were determined based on CD45pos and CD19pos events falling within lymphocyte FSC (forward-scattered light)/SSC (side-scattered light) gate. Results for individual antibody concentrations were calculated as percent remaining B cells with reference to untreated samples and graphed as a function of log-transformed antibody concentration (adjusted to 100% and shown as a dotted line). Data represent the mean and SD of eight independent donors. […] Concentration dependent killing of the Raji cells was analyzed after 2 hours, where the viability of the cells was measured by determination of the ATP concentration in each well using luciferase. Results are presented as isotype-control normalized relative luciferase units (RLU) as a function of log-transformed antibody concentration."}, "[2]": {"test_system": "life-supporting kidney allografts", "experiment": "NHP model of kidney allograft rejection", "assay_type": "in vivo, cynomolgus monkeys (Macaca fascicularis)"}, "human B cell line RI-1": {"test_system": "human B cell line RI-1", "experiment": "Internalization by image flow cytometry", "assay_type": "cell-based", "settings": "3 hours at 37° C.", "method": "Internalization of fluorescently tagged CFZ533 and rCD154 was assessed in vitro using the human B cell line RI-1 (Th'ng et al, 1987). CD40 dependence of CFZ533 internalization was assessed using a CD40 knockout RI-1 cell line. Internalization was assessed using an Amnis® image flow cytometer (Merck KHaA, Darnstadt) according to the manufacturer's instructions and data analyzed using ImageStream®^X software.\nFIG. 8B. Relative internalization erode of CFZ533 and rCD154 under permissive conditions (non-permissive erode values subtracted). Each dot represents data from an individual experiment and the population mean is indicated as a horizontal red line. FIG. 8C. Representative images of individual CD40 expressing or CD40 knock-out RI-1 cells cultured with Alexa488 labeled CFZ533 for 3 hours at 37° C. In all experiments, cells were co-stained with AlexaFlour 647 labeled CD45 to demark the cell membrane."}, "Single dose PK/PD study": {"experiment": "Single dose PK/PD study", "assay_type": "in vivo, cynomolgus monkeys", "method": "Single dose pharmacokinetic/pharmacodynamic (PK/PD) studies utilized biologics-treatment naive cynomolgus monkeys (Macaca fascicularis) between 7.5-8.5 years old (6.5±2.6 kg) and captive-bred from Philippines (Siconbrec, Makati City, Philippines). Animal handling, care, drug treatments and blood sampling are performed according to the Swiss Federal Law for animal protection (animal licenses BS #1900, BS #1495). For the recall immunization experiments, we utilized animals from a toxicology study conducted at Covance Laboratories GmbH, Muenster, Germany, (manuscript in preparation). The study was performed according to an authorized study protocol and local standard operating procedures in strict compliance with national legal regulations on animal welfare law and accepted animal welfare standards.\nIn the PK study, CFZ533 was administered to three animals at calculated single doses of 16.2 (5532), 18.5 (5531) and 20 (5530) mg/kg. […] KLH specific IgM/IgG titers were determined with sandwich ELISA using cynomolgus monkey anti-KLH IgM/IgG reference serum as standard. […]\nFIG. 9A. Serum concentrations of CFZ533 in three cynomolgus monkeys after single dose administration at calculated doses of 16.2 (5532), 18.5 (5531) and 20 (5530) mg/kg intravenously. […]"}, "[3]": {"test_system": "human whole blood, PBMCs, monocyte-derived DCs, HUVECs", "experiment": "Stimulatory potential in vitro (proliferation, CD69, cytokines)", "assay_type": "cell-based", "method": "The ability of CFZ533 to stimulate activation of human leukocytes was assessed using proliferation and upregulation of the activation molecule CD69 on B cells in whole blood. […] Human whole blood from multiple donors (n=13) were incubated with a dose titration of CFZ533, and proliferation (^3H-TdR) was assessed after three days of culture. ii. Human PBMCs from multiple donors (n=26) were incubated with a dose titration of CFZ533, and proliferation (^3H-TdR) was assessed after three days of culture. For both graphs, data is presented as mean and SD of normalized cpm as a function of log-transformed CFZ533 concentration (rCD154+IL-4=100; dotted lines, cells plus media=0; dashed lines). […] Human PBMCs were stimulated for 3 days with a dose titration of CFZ533 in the presence of IL-4 (i) or anti-IgM F(ab′)2. (ii). The mean and SD of 3H-TdR (cpm) is shown as a function of log-transformed CFZ533 concentration. In FIG. 6C it is shown how human whole blood (41 donors) was cultured overnight with no stimuli, CFZ533, isotype control or rCD154 and CD69 expression on B cells was assessed by FACS. Each dot represents data from a single donor with mean % CD69 values indicated by a horizontal red line."}, "PBMCs": {"test_system": "PBMCs", "settings": "Rhesus"}, "platelet aggregation": {"test_system": "platelet aggregation", "experiment": "Platelet function and blood hemostasis", "assay_type": "cell-based"}},
  "note": "Several values for one entry are separate records, joined by “and”; a condition that tells them apart may be missing. Equal values may be shown once.",
  "data": [
    {"substance": "CFZ533: human anti-CD40 IgG1 monoclonal antibody with Fc-silencing N297A mutation; heavy chain SEQ ID NO: 9, light chain SEQ ID NO: 10", "values": [
      {"measurement": "Increased lymphoid cellularity", "setting": "[1]; weekly dosing at 10, 50 and 150 mg/kg", "value": "5/22"},
      {"measurement": "No Observed Adverse Effect Level (NOAEL)", "setting": "[1]; weekly dosing, rhesus monkey", "value": 10, "unit": "mg/kg"},
      {"measurement": "B cells eliminated in human whole blood", "setting": "CD20pos B cells", "value": "failed to mediate any cell depletion"},
      {"measurement": "Days after Transplantation (median days)", "setting": "[2]; CFZ533 30 mg/kg i.v. monotherapy, n 5", "value": 95, "unit": "days"},
      {"measurement": "Survival of kidney allografts and graft morphology", "setting": "[2]; combination with CsA (20 mg/kg p.o.) or monotherapy", "value": "demonstrated efficacy in increasing the survival of kidney allografts in NHPs"},
      {"measurement": "Internalization by RI-1 B cells", "setting": "human B cell line RI-1", "value": "internalized"},
      {"measurement": "inflection point in PK profiles (drop of CD40 saturation)", "setting": "Single dose PK/PD study; serum concentration-time profiles, non-human primates", "value": "10 to 20", "unit": "µg/mL"},
      {"measurement": "Depletion of peripheral blood B cells", "setting": "Single dose PK/PD study; single intravenous dose 16.2, 18.5 and 20 mg/kg", "value": "did not deplete peripheral blood B cells"},
      {"measurement": "Induction of thymidine incorporation (proliferation)", "setting": "[3]; human whole blood (1:10 dilution) or PBMCs, three days", "value": "unable to induce thymidine incorporation"},
      {"measurement": "Induction of CD69 upregulation on B cells", "setting": "[3]; human whole blood, overnight", "value": "unable to induce upregulation of CD69"},
      {"measurement": "Induction of cytokine production", "setting": "[3]; monocyte-derived DCs or HUVECs", "value": "unable to induce cytokine production"},
      {"measurement": "Inhibition of rCD154-induced proliferation (IC50 PBMCs)", "setting": "PBMCs", "value": "0.03 µg/mL and 0.026 ± 0.017 µg/mL"},
      {"measurement": "Platelet aggregation responses", "setting": "platelet aggregation", "value": "does not induce platelet aggregation responses"}
    ]}
  ]
}
